What was measured:
Assay type in all cases: in vivo
Echinocloa crus-galli [1] = assay: greenhouse test, post-emergence treatment, ECHCG; conditions: post-emergence
Summary of the method: (§1)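 Herbicidal effect is rated 0–100, where 100 denotes total destruction of aerial parts and 0 denotes unaffected growth. Treatment occurs once plants reach 3–15 cm in humus-containing loamy sand, with compound applied in water; the trial runs 2–4 weeks at 10–25 °C or 20–35 °C.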

Poa annua = assay: greenhouse test, pre-emergence treatment, POAAN
Source text: (§2) The culture containers used were plastic flowerpots containing loamy sand with approximately 3.0% of humus as the substrate. The seeds of the test plants were sown separately for each species.
For the pre-emergence treatment, the active ingredients, which had been suspended or emulsified in water, were applied directly after sowing by means of finely distributing nozzles. The containers were irrigated gently to promote germination and growth and subsequently covered with transparent plastic hoods until the plants had rooted. This cover caused uniform germination of the test plants, unless this had been impaired by the active ingredients.
(§3) Depending on the species, the plants were kept at 10-25° C. or 20-35° C., respectively.
(§4) The test period extended over 2 to 4 weeks. During this time, the plants were tended, and their response to the individual treatments was evaluated.
(§5) Evaluation was carried out using a scale from 0 to 100. 100 means no emergence of the plants, or complete destruction of at least the aerial moieties, and 0 means no damage, or normal course of growth. A good herbicidal activity is given at values of at least 70 and a very good herbicidal activity is given at values of at least 85.
(§6) The plants used in the greenhouse experiments were of the following species: […]

Echinocloa crus-galli [2] = assay: greenhouse test, pre-emergence treatment, ECHCG
Summary of the method: (§7)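 Herbicidal effect rated on a 0-100 scale, where 0 is normal growth and 100 is no emergence or destroyed aerial parts, 2 to 4 weeks after soil application at sowing.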

Abutilon theophrasti = assay: greenhouse test, post-emergence treatment, ABUTH
Source text: as §2
(§8) For the post-emergence treatment, the test plants were first grown to a height of 3 to 15 cm, depending on the plant habit, and only then treated with the active ingredients which had been suspended or emulsified in water. For this purpose, the test plants were either sown directly and grown in the same containers, or they were first grown separately as seedlings and transplanted into the test containers a few days prior to treatment.
as §3, §4, §5, §6

Apera spica-venti = assay: greenhouse test, pre-emergence treatment, APESV
Summary of the method: as §7

Amaranthus retroflexus = assay: greenhouse test, post-emergence treatment, AMARE; conditions: 1000 g/ha
Source text: as §2, §8, §3, §4, §5, §6

Alopecurus myosuroides = assay: greenhouse test, post-emergence treatment, ALOMY; conditions: post-emergence
Summary of the method: as §1

Avena fatua = assay: greenhouse test, post-emergence treatment, AVEFA; conditions: 2000 g/ha
Summary of the method: as §1

Setaria viridis = assay: greenhouse test, post-emergence treatment, SETVI
Summary of the method: as §1

SMILES	herbicidal activity (Echinocloa crus-galli [2]; 1000 g/ha)	herbicidal activity (Abutilon theophrasti; 1000 g/ha)	herbicidal activity (Apera spica-venti; 1000 g/ha)	herbicidal activity (Amaranthus retroflexus)	herbicidal activity (Echinocloa crus-galli [1]; 2000 g/ha)	herbicidal activity (Apera spica-venti; 2000 g/ha)	herbicidal activity (Poa annua; 2000 g/ha)	also measured
Brc1cc(-c2nc(C3CC3)ncc2-c2ccccc2Br)co1 [Ex. 268]	very good (a very good herbicidal activity is given at values of at least 85)							herbicidal activity (Echinocloa crus-galli [1]; 1000 g/ha): very good (a very good herbicidal activity is given at values of at least 85); herbicidal activity (Poa annua; 1000 g/ha): very good (a very good herbicidal activity is given at values of at least 85)
Cc1nc(C)c(-c2nc(C3CC3)ncc2-c2cc(C(F)(F)F)ccc2Cl)o1 [Ex. 278]	very good (a very good herbicidal activity is given at values of at least 85)	very good (a very good herbicidal activity is given at values of at least 85)	very good (a very good herbicidal activity is given at values of at least 85)	very good (a very good herbicidal activity is given at values of at least 85)				herbicidal activity (Echinocloa crus-galli [1]; 1000 g/ha): very good (a very good herbicidal activity is given at values of at least 85)
Clc1cncc(-c2nc(C3CC3)ncc2-c2ccccc2Cl)c1 [Ex. 279]	very good (a very good herbicidal activity is given at values of at least 85)	very good (a very good herbicidal activity is given at values of at least 85)	very good (a very good herbicidal activity is given at values of at least 85)	very good (a very good herbicidal activity is given at values of at least 85)				herbicidal activity (Alopecurus myosuroides; 1000 g/ha): very good (a very good herbicidal activity is given at values of at least 85)
Clc1ccccc1-c1cnc(C2CC2)nc1-c1ccncn1 [Ex. 225]					very good (a very good herbicidal activity is given at values of at least 85)	very good (a very good herbicidal activity is given at values of at least 85)	very good (a very good herbicidal activity is given at values of at least 85)	herbicidal activity (Alopecurus myosuroides; 2000 g/ha): very good (a very good herbicidal activity is given at values of at least 85); herbicidal activity (Echinocloa crus-galli [2]; 2000 g/ha): very good (a very good herbicidal activity is given at values of at least 85); herbicidal activity (Avena fatua): very good (a very good herbicidal activity is given at values of at least 85)
OC(c1nc(C2CC2)ncc1-c1ccccc1Cl)C(O)c1c(Cl)ccc(Cl)c1Cl (stereo not shown) [Ex. 241]					good (A good herbicidal activity is given at values of at least 70)		very good (a very good herbicidal activity is given at values of at least 85)	
CC(C)(O)c1nc(C2CC2)ncc1-c1ccccc1Cl [Ex. 86]		good (A good herbicidal activity is given at values of at least 70)	good (A good herbicidal activity is given at values of at least 70)	good (A good herbicidal activity is given at values of at least 70)				herbicidal activity (Setaria viridis; 1000 g/ha): very good (a very good herbicidal activity is given at values of at least 85)
C=Cc1nc(C2CC2)ncc1-c1ccccc1Cl [Ex. 211]					very good (a very good herbicidal activity is given at values of at least 85)	good (A good herbicidal activity is given at values of at least 70)	good (A good herbicidal activity is given at values of at least 70)	herbicidal activity (Alopecurus myosuroides; 2000 g/ha): good (A good herbicidal activity is given at values of at least 70)
CC(=O)Cc1nc(C2CC2)ncc1-c1ccccc1Cl [Ex. 146]					very good (a very good herbicidal activity is given at values of at least 85)	very good (a very good herbicidal activity is given at values of at least 85)		herbicidal activity (Abutilon theophrasti; 2000 g/ha): very good (a very good herbicidal activity is given at values of at least 85); herbicidal activity (Setaria viridis; 2000 g/ha): very good (a very good herbicidal activity is given at values of at least 85); herbicidal activity (Echinocloa crus-galli [2]; 2000 g/ha): very good (a very good herbicidal activity is given at values of at least 85)

Source: US11178871B2, “Herbicidal pyrimidine compounds” (BASF SE, priority 2016, dated 2021)
